According to US20100022526A1, “PYRIDAZINE DERIVATIVES, PROCESSES FOR THEIR PREPARATION AND THEIR USE AS FUNGICIDES” (SYNGENTA CROP PROTECTION, INC., priority 2007, published 2010):

Tests used:
Alternaria solani = assay: Alternaria solani/tomato/Preventive (Action against Alternaria on Tomato); assay type: in vivo; conditions: preventive spray, tomato plants cv. Roter Gnom, inoculated two days after application, assessed after 4 days, untreated controls infected over 80%, read-out: inhibit fungal infestation
Experimental: (§1) Alternaria solani/tomato/Preventive (Action against Alternaria on Tomato) 4 weeks old tomato plants cv. Roter Gnom are treated with the formulated test compound in a spray chamber. Two days after application tomato plants are inoculated by spraying a spore suspension on the test plants. After an incubation period of 4 days at 22° C./18° C. and 95% r. h. in a greenhouse the disease incidence is assessed.

Botrytis cinerea = assay: Botrytis cinerea/tomato/preventive (Action against Botrytis on Tomato); assay type: in vivo; conditions: preventive spray, tomato plants cv. Roter Gnom, inoculated two days after application, assessed after 3 days, untreated controls infected over 80%, read-out: inhibit fungal infestation
Experimental: as §1, with “Botrytis cinerea/tomato/preventive (Action” for “Alternaria solani/tomato/Preventive (Action”, “against Botrytis” for “against Alternaria”, “of 3” for “of 4”, “at 20°” for “at 22° C./18°”

[1] = tested on: Magnaporthe grisea (Pyricularia oryzae); assay: whole plant or invertebrate; assay type: in vivo; conditions: read-out: inhibit fungal infestation
Septoria tritici = assay: Sentoria tritici/wheat/Preventive (Action against Septoria Leaf Spot on Wheat); assay type: in vivo; conditions: Zymoseptoria tritici, preventive spray, wheat plants cv. Riband, inoculated one day after application, assessed 16-18 days after inoculation, untreated controls infected over 80%, read-out: inhibits fungal infestation
Experimental: Sentoria tritici/wheat/Preventive (Action against Septoria Leaf Spot on Wheat) 2 weeks old wheat plants cv. Riband are treated with the formulated test compound in a spray chamber. One day after application wheat plants are inoculated by spraying a spore suspension (10^6 conidia/ml) on the test plants. After an incubation period of 1 day at 22° C./21° C. and 95% r. h. plants are kept at 22° C./21° C. and 70% r.h. in a greenhouse. The disease incidence is assessed 16-18 days after inoculation.

Puccinia recondita = assay: Puccinia recondita/wheat/preventive (Action against Brown Rust on Wheat); assay type: in vivo; conditions: preventive spray, wheat plants cv. Arina, inoculated one day after application, assessed 11 days after inoculation, untreated controls infected over 80%, read-out: inhibits fungal infestation
Experimental: Puccinia recondita/wheat/preventive (Action against Brown Rust on Wheat) 1 week old wheat plants cv. Arina are treated with the formulated test compound in a spray chamber. One day after application wheat plants are inoculated by spraying a spore suspension (1×105 uredospores/ml) on the test plants. After an incubation period of 1 day at 20° C. and 95% r. h. plants are kept for 10 days 20° C./18° C. (day/night) and 60% r.h. in a greenhouse. The disease incidence is assessed 11 days after inoculation.

[2] = tested on: Pyrenophora teres (Helminthosporium teres); assay: Pyrenophora teres (Helminthosporium teres)/barley/preventive (Action against Net Blotch on Barley); assay type: in vivo; conditions: preventive spray, barley plants cv. Regina, inoculated two days after application, assessed after 4 days, untreated controls infected over 80%, read-out: inhibit fungal infestation
Experimental: Pyrenophora teres (Helminthosporium teres)/barley/preventive (Action against Net Blotch on Barley) 1-week-old barley plants cv. Regina are treated with the formulated test compound in a spray chamber. Two days after application barley plants are inoculated by spraying a spore suspension (2.6×10^4 conidia/ml) on the test plants. After an incubation period of 4 days at 20° C. and 95% r. h. the disease incidence is assessed.

Uncinula necator = assay: Uncinula necator/grape/preventive (Action against Powdery Mildew on Grape); assay type: in vivo; conditions: Erysiphe necator, preventive spray, grape seedlings cv. Gutedel, inoculated one day after application, assessed after 7 days, untreated controls infected over 80%, read-out: inhibit fungal infestation
Experimental: Uncinula necator/grape/preventive (Action against Powdery Mildew on Grape) 5 weeks old grape seedlings cv. Gutedel are treated with the formulated test compound in a spray chamber. One day after application grape plants are inoculated by shaking plants infected with grape powdery mildew above the test plants. After an incubation period of 7 days at 24° C./22° C. and 70% r. h. under a light regime of 14/10 h (light/dark) the disease incidence is assessed.

Row | SMILES | inhibition at 200 ppm (Alternaria solani) [%] | inhibition at 200 ppm (Botrytis cinerea) [%] | inhibition at 200 ppm [1] [%] | inhibition at 200 ppm (Septoria tritici) [%] | melting point [°C] | inhibition at 200 ppm (Puccinia recondita) [%] | inhibition at 200 ppm [2] [%] | inhibition at 200 ppm (Uncinula necator) [%]
1 | Fc1cc(F)c(-c2c(Cl)nnc(Cl)c2-c2cccc(Cl)c2)c(F)c1 [I.b. 198, 3,6-dichloro-4-(3-chloro-phenyl)-5-(2,4,6-trifluoro-phenyl)-pyridazine] | ≥ 80 | ≥ 80 | ≥ 80 | ≥ 80 | 138 to 140 |  |  | 
2 | Fc1cc(F)c(-c2c(Cl)nnc(Cl)c2-c2cccc(Br)c2)c(F)c1 [I.c. 198, 3,6-dichloro-4-(3-bromo-phenyl)-5-(2,4,6-trifluoro-phenyl)-pyridazine] |  |  |  |  | 120 to 121 | ≥ 80 | ≥ 80 | 
3 | Cc1cccc(-c2c(Cl)nnc(Cl)c2-c2c(F)cc(F)cc2F)c1 [I.d. 198, 3,6-dichloro-4-m-tolyl-5-(2,4,6-trifluoro-phenyl)-pyridazine] |  |  |  | ≥ 80 | 121 to 123 |  | ≥ 80 | 
4 | Oc1nnc(O)c(-c2c(F)cc(F)cc2F)c1-c1cccc(C(F)(F)F)c1 [I.e.196, 4-(3-trifluoromethyl-phenyl)-5-(2,4,6-trifluoro-phenyl)-pyridazine-3,6-diol] |  |  |  |  | 259 to 260 |  |  | 
5 | Fc1cc(F)c(-c2c(Cl)nnc(Cl)c2-c2cccc(C(F)(F)F)c2)c(F)c1 [I.e. 198, 3,6-dichloro-4-(3-trifluoromethyl-phenyl)-5-(2,4,6-trifluoro-phenyl)-pyridazine] |  | ≥ 80 |  |  | 117 to 119 |  |  | ≥ 80
6 | Fc1ccc(-c2c(F)nnc(F)c2-c2c(F)cc(F)cc2F)cc1 [I.j. 197, 3,6-difluoro-4-(4-fluoro-phenyl)-5-(2,4,6-trifluoro-phenyl)-pyridazine] | ≥ 80 | ≥ 80 |  | ≥ 80 | 74 to 76 | ≥ 80 | ≥ 80 | 
7 | Fc1ccc(-c2c(Cl)nnc(Cl)c2-c2c(F)cc(F)cc2F)cc1 [I.j. 198, 3,6-dichloro-4-(4-fluoro-phenyl)-5-(2,4,6-trifluoro-phenyl)-pyridazine] | ≥ 80 | ≥ 80 | ≥ 80 | ≥ 80 | 143 to 145 | ≥ 80 | ≥ 80 | ≥ 80
8 | COc1nnc(Cl)c(-c2c(F)cc(F)cc2F)c1-c1ccc(F)cc1 [I.j. 199, 3-chloro-5-(4-fluoro-phenyl)-6-methoxy-4-(2,4,6-trifluoro-phenyl)-pyridazine] | ≥ 80 | ≥ 80 | ≥ 80 | ≥ 80 | 146 to 151 |  | ≥ 80 | ≥ 80
9 | Oc1nnc(O)c(-c2c(F)cccc2Cl)c1-c1ccc(Cl)cc1 [I.k.076, 4-(4-chloro-phenyl)-5-(2-chloro-6-fluoro-phenyl)-pyridazine-3,6-diol] |  |  |  |  | 144 to 149 |  |  | 
10 | Fc1cccc(Cl)c1-c1c(Cl)nnc(Cl)c1-c1ccc(Cl)cc1 [I.k.078, 3,6-dichloro-4-(2-chloro-6-fluoro-phenyl)-5-(4-chloro-phenyl)-pyridazine] |  |  |  |  | 144 to 145 |  |  | 
11 | COc1nnc(Cl)c(-c2c(F)cccc2Cl)c1-c1ccc(Cl)cc1 [I.k.079, 3-chloro-4-(2-chloro-6-fluoro-phenyl)-5-(4-chloro-phenyl)-6-methoxy-pyridazine] |  |  |  |  | 137 to 141 |  |  | 
12 | Oc1nnc(O)c(-c2c(F)cc(F)cc2F)c1-c1ccc(Cl)cc1 [I.k.196, 4-(4-chloro-phenyl)-5-(2,4,6-trifluoro-phenyl)-pyridazine-3,6-diol] |  |  |  |  | 158 to 164 |  |  | 
13 | Fc1cc(F)c(-c2c(Cl)nnc(Cl)c2-c2ccc(Cl)cc2)c(F)c1 [I.k. 198, 3,6-dichloro-4-(4-chloro-phenyl)-5-(2,4,6-trifluoro-phenyl)-pyridazine] |  | ≥ 80 | ≥ 80 | ≥ 80 |  | ≥ 80 | ≥ 80 | ≥ 80
14 | O=c1[nH][nH]c(=O)c(-c2c(F)cc(F)cc2F)c1-c1ccc(Br)cc1 [I.l.196, 4-(4-bromophenyl)-5-(2,4,6-trifluorophenyl)-1,2-dihydro-pyridazine-3,6-dione] |  |  |  |  | 272 to 274 |  |  | 
15 | Fc1cc(F)c(-c2c(F)nnc(F)c2-c2ccc(Br)cc2)c(F)c1 [I.l. 197, 4-(4-bromophenyl)-3,6-difluoro-5-(2,4,6-trifluorophenyl)-pyridazine] | ≥ 80 |  | ≥ 80 | ≥ 80 | 132 to 133 | ≥ 80 | ≥ 80 | ≥ 80
16 | Fc1cc(F)c(-c2c(Cl)nnc(Cl)c2-c2ccc(Br)cc2)c(F)c1 [I.l. 198, 4-(4-bromophenyl)-3,6-dichloro-5-(2,4,6-trifluorophenyl)-pyridazine] | ≥ 80 | ≥ 80 | ≥ 80 | ≥ 80 | 134 to 137 | ≥ 80 | ≥ 80 | 
17 | Cc1ccc(-c2c(Cl)nnc(Cl)c2-c2c(F)cc(F)cc2F)cc1 [I.m. 198, 3,6-dichloro-4-p-tolyl-5-(2,4,6-trifluoro-phenyl)-pyridazine] | ≥ 80 | ≥ 80 |  | ≥ 80 |  | ≥ 80 | ≥ 80 | ≥ 80
18 | COc1nnc(Cl)c(-c2c(F)cc(F)cc2F)c1-c1ccc(C)cc1 [I.m. 199, 3-chloro-6-methoxy-5-p-tolyl-4-(2,4,6-trifluoro-phenyl)-pyridazine] |  |  |  | ≥ 80 | 126 to 128 | ≥ 80 |  | 
19 | CCc1ccc(-c2c(O)nnc(O)c2-c2c(F)cc(F)cc2F)cc1 [I.o.196, 4-(4-ethyl-phenyl)-5-(2,4,6-trifluoro-phenyl)-pyridazine-3,6-diol] |  |  |  |  | 278 to 289 |  |  | 
20 | CCc1ccc(-c2c(OC)nnc(Cl)c2-c2c(F)cc(F)cc2F)cc1 [I.o. 199, 3-chloro-5-(4-ethyl-phenyl)-6-methoxy-4-(2,4,6-trifluoro-phenyl)-pyridazine] | ≥ 80 |  | ≥ 80 | ≥ 80 | 109 to 112 | ≥ 80 |  | ≥ 80
21 | COc1ccc(-c2c(O)nnc(O)c2-c2c(F)cc(F)cc2F)cc1 [I.p.196, 4-(4-methoxy-phenyl)-5-(2,4,6-trifluoro-phenyl)-pyridazine-3,6-diol] |  |  |  |  | 287 to 294 |  |  | 
22 | COc1ccc(-c2c(Cl)nnc(Cl)c2-c2c(F)cc(F)cc2F)cc1 [I.p. 198, 3,6-dichloro-4-(4-methoxy-phenyl)-5-(2,4,6-trifluoro-phenyl)-pyridazine] | ≥ 80 | ≥ 80 | ≥ 80 | ≥ 80 | 106 to 109 |  |  | ≥ 80
23 | Fc1cc(F)c(-c2c(Cl)nnc(Cl)c2-c2ccc(Cl)c(Cl)c2)c(F)c1 [I.v. 198, 3,6-dichloro-4-(3,4-dichloro-phenyl)-5-(2,4,6-trifluoro-phenyl)-pyridazine] | ≥ 80 | ≥ 80 |  | ≥ 80 | 139 to 140 |  | ≥ 80 | 
